Broadly, the LD50 is the dose at which mortality reaches 50%. A higher LD50 goes with a less toxic substance.

The subject of data set [1] is L 1210 leukemia cells. Nature of the data set: Proliferation assay: incorporation of C-14-thymidine in L 1210 cells. The format is cell-based. The following applies: Mus musculus, read-out: Proliferation assay IC50. The protocol:
The determination of the cytotoxic activity of the compounds described in the present patent is carried out on L 1210 leukemia cells of the mouse. Specifically, the following test systems were used:
In this in vitro method, after incubation of the cells with varying concentrations of the test substance a determination is carried out of the extent to which the cells can incorporate radioactively labelled DNA-precursors (for example C-14-labelled thymidine).
L 1210 Cells in the exponential growth phase (5×10^3 /ml in RPMI 1640) are incubated for 72 hours, in a microtitration plate, with different concentrations of the test substance (37° C., 5% CO2, 95% relative atmospheric humidity). Controls consist of cells which are incubated solely with fresh medium. All assays are carried out in quadruplicate. After 65 hours, 50 μl of C-14-thymidine (1.5 μc/ml) are added in order to radioactively label the DNA of the cell. After 7 hours' incubation, the cells are filtered off with suction, and the DNA is precipitated with 5% strength dichloroacetic acid and successively washed with water and methanol. After drying at 50° C., the radioactivity built into the DNA is determined after adding 5 ml of scintillation fluid.
The results are quoted as a ratio of the scintillation indices obtained after incubation with the test substance and obtained with the untreated control. From the measurements thus obtained, the dose/effect curve is determined and the IC50, i.e. the concentration which under test conditions reduces the incorporation of radioactive thymidine by 50% relative to the control, is determined graphically.

Data set [2] relates to L 1210 leukemia cells. Kind of data set: Colony formation of L 1210 leukemia cells in soft agar (stem cell assay). The format is cell-based. The following applies: Mus musculus. On the procedure:
In this test, cytostatically active substances produce a reduction of the number of colonies observed relative to an untreated control. Specifically, the test is carried out as follows:
500 Leukemia cells per plate are incubated with different concentrations of test substance for 1 hour at 37° C. The cells are then washed twice with McCoy 5a medium and finally, after addition of 0.3% of agar, poured out into Petri dishes. Controls are incubated with fresh medium only. In place of the 1-hour incubation, different concentrations of the test substance are in some cases mixed into the upper agar layer so as to achieve continuous exposure of the cells over the entire incubation period. After the agar has solidified, the plates are incubated in an incubating chamber for 7 days at 37° C. (5% CO2, 95% relative atmospheric humidity). Thereafter, the number of colonies formed which have a diameter of 60μ is counted. The results are quoted as the number of colonies in the treated agar plates expressed as a percentage of those in the untreated control. From the dose/effect curve thus obtained, the IC50 is determined and serves as a measure of the effectiveness of the substance.

Data set [3] in a line: Determination of acute toxicity, intraperitoneal. Conditions: mouse, in vivo, ip, NMRI mice, day 14, Litchfield Wilcoxon. The protocol: To determine the acute toxicity, NMRI mice were injected intraperitoneally,on day 0, with different doses of the test substance suspended in 0.5 ml of 0.5% strength carboxymethylcellulose. Control groups were given solely 0.5 ml of carboxymethylcellulose solution. 5 Mice were employed per concentration of test substance. On day 14, the number of surviving mice is determined and the LD50 found therefrom by the Litchfield Wilcoxon method.

[4] abbreviates: L1210, L 1210 cells, 72 hours, C-14-thymidine incorporation.
[5] abbreviates: L1210, 168 h, L 1210 colony formation in soft agar, continuous exposure, 7 days, read-out: Stem cell assay IC50, Incubation: Continuous.
Setting [6] is: L1210, L 1210 colony formation in soft agar, 1 hour incubation, 7 days, read-out: Stem cell assay IC50, Incubation: 1 hour.

Converted amounts (≈) assume the structure as drawn.

Consider `COc1cccc2c1C(=O)c1c(O)c3c(c(O)c1C2=O)C[C@@](O)(C(=O)CO)C[C@@H]3O[C@H]1C[C@H](N)[C@H](O)[C@H](C)O1` [Adriamycin, reference compound], for which the IC50 in the data set on L 1210 leukemia cells [1] (L1210, 72 h) worked out at 0.006 µg/mL (≈ 0.011 µM); in the data set on L 1210 leukemia cells [2] (L1210, 168 h, read-out: Stem cell assay IC50, Incubation: Continuous), 0.02 µg/mL (≈ 0.0368 µM); in the data set on L 1210 leukemia cells [2] (L1210, read-out: Stem cell assay IC50, Incubation: 1 hour), 0.044 µg/mL (≈ 0.081 µM). This molecule came in with an LD50 at 336 h in data set [3] of 14 mg/kg.
As for `O=C1c2ccccc2C(=O)c2c(OCC3CO3)ccc(O)c21` (centres unmarked) [Example 3, 1-Hydroxy-anthraquinone-4-(oxy-2,3-oxido-propane)], the IC50 in the data set on L 1210 leukemia cells [1] (setting [4]) is 0.028 µg/mL (≈ 0.0945 µM); with L 1210 leukemia cells [2] (setting [5]), 0.03 µg/mL (≈ 0.101 µM); with L 1210 leukemia cells [2] (setting [6]), 0.066 µg/mL (≈ 0.223 µM).
Take `O=C1c2ccccc2C(=O)c2c(OCC3CO3)ccc(OCC3CO3)c21` (centres unmarked) [Example 4, Anthraquinone-1,4-bis-(oxy-2,3-oxido-propane)]: the IC50 in the data set with L 1210 leukemia cells [1] (setting [4]) is 0.0022 µg/mL (≈ 0.00624 µM); in the data set with L 1210 leukemia cells [2] (setting [5]) it was 0.0033 µg/mL (≈ 0.00937 µM); with L 1210 leukemia cells [2] (setting [6]), 0.004 µg/mL (≈ 0.0114 µM).
For `O=C1c2ccc(OCC3CO3)cc2C(=O)c2ccc(OCC3CO3)cc21` (centres unmarked) [Example 5, Anthraquinone-2,6-bis(oxy-2,3-oxido-propane)], the IC50 in the data set with L 1210 leukemia cells [1] (L1210, 72 h) was determined as 0.0044 µg/mL (≈ 0.0125 µM); in the data set with L 1210 leukemia cells [2] (setting [5]), 0.01 µg/mL (≈ 0.0284 µM); in the data set with L 1210 leukemia cells [2] (setting [6]), 0.0083 µg/mL (≈ 0.0236 µM). For the same molecule, the LD50 at 336 h in data set [3] is 200 mg/kg.
Turning to `O=C1c2cccc(OCC3CO3)c2C(=O)c2c(OCC3CO3)cccc21` (centres unmarked) [Example 8, Anthraquinone-1,8-bis-(oxy-2,3-oxido-propane)], the figures for the IC50 with L 1210 leukemia cells [1] (setting [4]), with L 1210 leukemia cells [2] (setting [5]) and with L 1210 leukemia cells [2] (setting [6]) were 0.028 µg/mL (≈ 0.0795 µM), 0.0085 µg/mL (≈ 0.0241 µM) and 0.03 µg/mL (≈ 0.0851 µM), respectively.

For the origin of these results see patent US4762648A, “Monofunctional and bisfunctional anthraquinone-(oxy-2,3-oxidopropanes), processes for their preparation, and their use as drugs” (Hoechst Aktiengesellschaft, priority 1983, dated 1988).
